Results as given in patent US8829193B2, “PIM kinase inhibitors and methods of their use” (Novartis AG, priority 2008, dated 2014).

Assays:
Assay type in all cases: biochemical
[1] = target: Pim2 kinase (Homo sapiens (Human), UniProt Q9P1W9); experiment: Pim2 ATP depletion assay; details: 4 μM ATP, 10 μM BAD peptide, 5 nM PIM2
Experimental: (§1) The activity of PIM2 is measured using a luciferase-luciferin based ATP detection reagent to quantify ATP depletion resulting from kinase-catalyzed phosphoryl transfer to a peptide substrate. Compounds to be tested are dissolved in 100% DMSO and directly distributed into white 384-well plates at 0.5 piper well. […] After 15 minutes, 10 μl of 8 μM ATP in assay buffer is added. Final assay concentrations are 5 nM PIM2, 4 μM ATP, 10 μM BAD peptide and 2.5% DMSO. The reaction is performed until approximately 50% of the ATP is depleted, then stopped with the addition of 20 μl KinaseGlo Plus (Promega Corporation) solution. The stopped reaction is incubated for 10 minutes and the remaining ATP detected via luminescence on the Victor2 (Perkin Elmer).

[2] = target: Pim3 kinase (Homo sapiens (Human), UniProt Q86V86); experiment: Pim3 ATP depletion assay; details: 40 μM ATP, 100 μM BAD peptide
Experimental: as §1, with “of PIM3” for “of PIM2”, “of 80” for “of 8”, “nM PIM1, 40” for “nM PIM2, 4”, “ATP, 100” for “ATP, 10”, “stopped by” for “stopped with”

[3] = target: Pim1 kinase (Homo sapiens (Human), UniProt P11309); experiment: Pim1 ATP depletion assay; details: 20 μM ATP, 40 μM BAD peptide, 2.5 nM PIM1
Experimental: as §1, with “of PIM1” for “of PIM2”, “0.5 μl per” for “0.5 piper”, “of 40” for “of 8”, “are 2.5” for “are 5”, “nM PIM1, 20” for “nM PIM2, 4”, “ATP, 40” for “ATP, 10”

Pim1 kinase, sequence (P11309 whole entry): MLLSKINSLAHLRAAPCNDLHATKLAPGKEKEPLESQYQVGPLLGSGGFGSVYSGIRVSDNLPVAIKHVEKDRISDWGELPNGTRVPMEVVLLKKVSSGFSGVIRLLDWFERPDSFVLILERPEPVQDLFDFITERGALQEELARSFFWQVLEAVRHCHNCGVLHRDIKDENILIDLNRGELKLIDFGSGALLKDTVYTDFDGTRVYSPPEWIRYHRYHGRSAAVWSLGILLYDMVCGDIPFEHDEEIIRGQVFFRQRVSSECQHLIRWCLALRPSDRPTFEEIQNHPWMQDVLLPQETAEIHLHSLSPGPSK
Pim2 kinase, sequence (Q9P1W9 whole entry): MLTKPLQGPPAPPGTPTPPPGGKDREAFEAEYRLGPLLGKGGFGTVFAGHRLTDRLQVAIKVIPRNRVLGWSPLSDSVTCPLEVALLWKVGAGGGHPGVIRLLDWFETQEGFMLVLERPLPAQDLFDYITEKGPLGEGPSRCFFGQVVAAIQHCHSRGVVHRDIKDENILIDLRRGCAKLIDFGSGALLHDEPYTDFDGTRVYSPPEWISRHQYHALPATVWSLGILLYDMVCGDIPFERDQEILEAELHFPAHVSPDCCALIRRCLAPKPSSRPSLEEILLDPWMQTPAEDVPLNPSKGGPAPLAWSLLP

`C[C@H]1C[C@@H](c2ccncc2NC(=O)c2csc(-c3c(F)cccc3F)n2)C[C@@H](N)[C@H]1F` (racemic) [Example 58, N-(4-((+/−)-3-amino-4-fluoro-5-methylcyclohexyl)pyridin-3-yl)-2-(2,6-difluorophenyl)thiazole-4-carboxamide] gave an IC50 [1] of 47 nM and an IC50 [2] of 18 nM.

`COc1ccc(F)c(-c2nc(C(=O)Nc3cnccc3[C@@H]3C[C@H](C)C[C@H](N)C3)cs2)c1F` (stereo in doubt) [Example 52, 2-(2,6-Difluoro-3-methoxy-phenyl)-thiazole-4-carboxylic acid [4-(3-amino-5-methyl-cyclohexyl)-pyridin-3-yl]-amide] was tested, and the IC50 [3] was 1 nM, the IC50 [1] was 4 nM and the IC50 [2] was 2 nM.

`CCOc1ccc(F)c(-c2nc(C(=O)Nc3cnccc3[C@@H]3C[C@H](C)C[C@H](N)C3)cs2)c1F` (stereo in doubt) [Example 54, 2-(3-Ethoxy-2,6-difluoro-phenyl)-thiazole-4-carboxylic acid [4-(3-amino-5-methyl-cyclohexyl)-pyridin-3-yl]-amide] gave an IC50 [3] of 1 nM, an IC50 [1] of 9 nM and an IC50 [2] of 3 nM.

Work on `C[C@@H]1C[C@H](N)C[C@H](c2ccncc2NC(=O)c2csc(-c3c(F)ccc(F)c3F)n2)C1` (stereo in doubt) [Example 55, 2-(2,3,6-Trifluoro-phenyl)-thiazole-4-carboxylic acid [4-(3-amino-5-methyl-cyclohexyl)-pyridin-3-yl]-amide] yielded an IC50 [3] of 3 nM, an IC50 [1] of 15 nM and an IC50 [2] of 5 nM.

`C[C@@H]1C[C@H](N)C[C@H](c2ccncc2NC(=O)c2csc(-c3c(F)ccc(Cl)c3F)n2)C1` (stereo in doubt) [Example 56, 2-(3-Chloro-2,6-difluoro-phenyl)-thiazole-4-carboxylic acid [4-(3-amino-5-methyl-cyclohexyl)-pyridin-3-yl]-amide] gave an IC50 [3] of 1 nM, an IC50 [1] of 12 nM and an IC50 [2] of 3 nM.

With `C[C@@H]1C[C@H](N)C[C@H](c2ccncc2NC(=O)c2csc(-c3c(F)cc(O)cc3F)n2)C1` (stereo in doubt) [Example 57, 2-(2,6-Difluoro-4-hydroxy-phenyl)-thiazole-4-carboxylic acid [4-(3-amino-5-methyl-cyclohexyl)-pyridin-3-yl]-amide] the IC50 [3] was 1 nM, the IC50 [1] was 4 nM and the IC50 [2] was 2 nM.

With `N[C@@H]1CN(c2ccncc2NC(=O)c2csc(-c3c(F)cccc3F)n2)CC[C@H]1F` [Example 3, N-(4-((3R,4R)-3-amino-4-fluoropiperidin-1-yl)pyridin-3-yl)-2-(2,6-difluorophenyl)thiazole-4-carboxamide] the IC50 [3] was 2 nM, the IC50 [1] was 23 nM and the IC50 [2] was 5 nM.

`N[C@H]1C[C@@H](O)CN(c2ccncc2NC(=O)c2csc(-c3c(F)cccc3F)n2)C1` [Example 5, N-(4-((3S,5R)-3-amino-5-hydroxypiperidin-1-yl)pyridin-3-yl)-2-(2,6-difluorophenyl)thiazole-4-carboxamide] gave an IC50 [3] of 15 nM, an IC50 [1] of 77 nM and an IC50 [2] of 13 nM.

`COC1CCN(c2ccncc2NC(=O)c2csc(-c3c(F)cccc3F)n2)CC1N` (centres unmarked) [Example 7, N-(4-(3-amino-4-methoxypiperidin-1-yl)pyridin-3-yl)-2-(2,6-difluorophenyl)thiazole-4-carboxamide] was tested, and the IC50 [3] was 5 nM, the IC50 [1] was 243 nM and the IC50 [2] was 18 nM.

With `N[C@H]1C[C@H](O)CN(c2ccncc2NC(=O)c2csc(-c3c(F)cccc3F)n2)C1` [Example 9, N-(4-((3S,5S)-3-amino-5-hyydroxypiperidin-1-yl)pyridin-3-yl)-2-(2,6-difluorophenyl)thiazole-4-carboxamide] the IC50 [3] was 69 nM, the IC50 [1] was 1500 nM and the IC50 [2] was 91 nM.

For `N[C@H]1C[C@H](OC(=O)c2ccccc2)CN(c2ccncc2NC(=O)c2csc(-c3c(F)cccc3F)n2)C1` [Example 10, (3S,5S)-5-amino-1-(3-(2-(2,6-difluorophenyl)thiazole-4-carboxamido)pyridin-4-yl)piperidin-3-yl benzoate], the IC50 [3] was 2220 nM, the IC50 [1] was 479 nM and the IC50 [2] was 322 nM.

Compound `N[C@H]1CCCN(c2ccncc2NC(=O)c2csc(C3CCCCC3)n2)C1` [Example 12, (S)-N-(4-(3-aminopiperidin-1-yl)pyridin-3-yl)-2-cyclohexylthiazole-4-carboxamide] has an IC50 [3] of 57 nM, an IC50 [1] of 208 nM and an IC50 [2] of 45 nM.

Work on `NC1CC(CO)CN(c2ccncc2NC(=O)c2csc(-c3c(F)cccc3F)n2)C1` (centres unmarked) [Example 13, N-(4-(3-amino-5-(hydroxymethyl)piperidin-1-yl)pyridin-3-yl)-2-(2,6-difluorophenyl)thiazole-4-carboxamide] yielded an IC50 [3] of 14 nM, an IC50 [1] of 58 nM and an IC50 [2] of 24 nM.

For `N[C@H]1C[C@H](F)CN(c2ccncc2NC(=O)c2csc(-c3c(F)cccc3F)n2)C1` [Example 17, N-(4-((3S,5S)-3-amino-5-fluoropiperidin-1-yl)pyridin-3-yl)-2-(2,6-difluorophenyl)thiazole-4-carboxamide], the IC50 [3] was 4 nM, the IC50 [1] was 70 nM and the IC50 [2] was 8 nM.

Work on `NC1CN(c2ccncc2NC(=O)c2csc(-c3c(F)cccc3F)n2)CCC1Cl` (centres unmarked) [Example 18, N-(4-(3-amino-4-chloropiperidin-1-yl)pyridin-3-yl)-2-(2,6-difluorophenyl)thiazole-4-carboxamide] yielded an IC50 [3] of 5 nM, an IC50 [1] of 54 nM and an IC50 [2] of 12 nM.

For `CC1CC(N)CN(c2ccncc2NC(=O)c2csc(C3CCCCC3)n2)C1` (centres unmarked) [Example 20, N-(4-(3-amino-5-methylpiperidin-1-yl)pyridin-3-yl)-2-cyclohexylthiazole-4-carboxamide], the IC50 [3] was 12 nM, the IC50 [1] was 18 nM and the IC50 [2] was 16 nM.

In the case of `NC1CC(C(F)(F)F)CN(c2ccncc2NC(=O)c2csc(C3CCCCC3)n2)C1` (centres unmarked) [Example 21, N-(4-(3-amino-5-(trifluoromethyl)piperidin-1-yl)pyridin-3-yl)-2-cyclohexylthiazole-4-carboxamide], the IC50 [3] is reported as 11 nM, the IC50 [1] is reported as 21 nM and the IC50 [2] is reported as 20 nM.

In the case of `CO[C@H]1C[C@H](N)CN(c2ccncc2NC(=O)c2csc(-c3c(F)cccc3F)n2)C1` [Example 22, N-(4-((3S,5S)-3-amino-5-methoxypiperidin-1-yl)pyridin-3-yl)-2-(2,6-difluorophenyl)thiazole-4-carboxamide], the IC50 [3] is reported as 129 nM, the IC50 [1] is reported as 378 nM and the IC50 [2] is reported as 60 nM.

Work on `N[C@@H]1CN(c2ccncc2NC(=O)c2csc(-c3c(F)cccc3F)n2)CC(F)(F)C1` [Example 24, (S)-N-(4-(5-amino-3,3-difluoropiperidin-1-yl)pyridin-3-yl)-2-(2,6-difluoropheenyl)thiazole-4-carboxamide] yielded an IC50 [3] of 2 nM, an IC50 [1] of 38 nM and an IC50 [2] of 4 nM.

Compound `CC[C@@H]1C[C@H](N)CN(c2ccncc2NC(=O)c2csc(-c3c(F)cccc3F)n2)C1` [Example 25, N-(4-((3S,5R)-3-amino-5-ethylpiperidin-1-yl)pyridin-3-yl)-2-(2,6-difluorophenyl)thiazole-4-carboxamide] has an IC50 [3] of 1 nM, an IC50 [1] of 3 nM and an IC50 [2] of 3 nM.

Compound `N[C@@H]1C[C@@H](C(F)(F)F)CN(c2ccncc2NC(=O)c2csc(-c3c(F)cccc3F)n2)C1` [Example 26, N-(4-((3R,5R)-3-amino-5-(trifluoromethyl)piperidin-1-yl)pyridin-3-yl)-2-(2,6-difluorophenyl)thiazole-4-carboxamide] has an IC50 [3] of 6 nM, an IC50 [1] of 72 nM and an IC50 [2] of 24 nM.

For `Nc1sc(-c2c(F)cccc2F)nc1C(=O)Nc1cnccc1N1CCC(F)CC1` [Example 30, 5-amino-2-(2,6-difluorophenyl)-N-(4-(4-fluoropiperidin-1-yl)pyridin-3-yl)thiazole-4-carboxamide], the IC50 [3] was 1 nM, the IC50 [1] was 55 nM and the IC50 [2] was 3 nM.

Compound `C[C@@H]1C[C@H](O)C[C@H](c2ccncc2NC(=O)c2csc(-c3c(F)cccc3F)n2)C1` [Example 31, 2-(2,6-difluorophenyl)-N-(4-((1R,3S,5S)-3-hydroxy-5-methylcyclohexyl)pyridin-3-yl)thiazole-4-carboxamide] has an IC50 [3] of 2 nM, an IC50 [1] of 90 nM and an IC50 [2] of 8 nM.

`C[C@@H]1C[C@H](O)C[C@H](c2ccncc2NC(=O)c2nc(-c3c(F)cccc3F)sc2N)C1` [Example 32, 5-amino-2-(2,6-difluorophenyl)-N-(4-((1R,3S,5S)-3-hydroxy-5-methylcyclohexyl)pyridin-3-yl)thiazole-4-carboxamide] gave an IC50 [3] of 1 nM, an IC50 [1] of 5 nM and an IC50 [2] of 4 nM.
